A word on the Kd: it is the concentration at which binding is half-saturated.

The record followed here is article PMC3091225 (The Journal of Biological Chemistry, 2011).

Each structure is given as a SMILES string. Some results are limits rather than exact numbers.

Common to all, as to assay: direct fluorescence titration of TBG into fluorophore
What all share (format): binding

Assay [1] concerns the target T1, TBG (wild-type, native, intact reactive loop) (Homo sapiens, UniProt P05543).
T1 sequence (P05543 21-415): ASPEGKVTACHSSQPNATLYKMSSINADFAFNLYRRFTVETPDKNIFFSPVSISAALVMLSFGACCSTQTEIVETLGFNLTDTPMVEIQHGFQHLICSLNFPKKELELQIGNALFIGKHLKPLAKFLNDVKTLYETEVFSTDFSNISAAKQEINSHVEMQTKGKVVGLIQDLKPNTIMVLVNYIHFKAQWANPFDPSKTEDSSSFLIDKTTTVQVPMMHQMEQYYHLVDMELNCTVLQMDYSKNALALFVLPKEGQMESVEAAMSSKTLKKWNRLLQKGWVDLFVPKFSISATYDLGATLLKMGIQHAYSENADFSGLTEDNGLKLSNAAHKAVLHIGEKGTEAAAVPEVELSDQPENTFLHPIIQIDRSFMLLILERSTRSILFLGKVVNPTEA

In assay [2] the target is T2, TBG (wild-type, native, intact reactive loop) (Homo sapiens, UniProt P05543, DEL124-126/K123A).
T2 sequence (P05543 with tags, fused parts or gaps K123A/DEL124-126): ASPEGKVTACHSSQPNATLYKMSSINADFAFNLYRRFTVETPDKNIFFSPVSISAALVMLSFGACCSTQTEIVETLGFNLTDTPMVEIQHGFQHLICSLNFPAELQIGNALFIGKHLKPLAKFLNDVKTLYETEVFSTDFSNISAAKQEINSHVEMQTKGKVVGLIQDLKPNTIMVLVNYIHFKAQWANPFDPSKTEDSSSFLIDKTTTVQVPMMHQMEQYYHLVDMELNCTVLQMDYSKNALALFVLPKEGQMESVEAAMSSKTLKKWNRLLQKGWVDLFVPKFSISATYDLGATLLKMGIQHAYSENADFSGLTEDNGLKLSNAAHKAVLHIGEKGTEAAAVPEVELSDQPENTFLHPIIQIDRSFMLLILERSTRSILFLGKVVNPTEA

Assay [3] addresses T3, cleaved TBG (wild-type, reactive loop cleaved) (Homo sapiens, UniProt P05543, DEL124-126/K123A).
T3 sequence (P05543 with tags, fused parts or gaps K123A/DEL124-126): T2 sequence (P05543 with tags, fused parts or gaps K123A/DEL124-126)

Regarding `O=C(N[C@@H](Cc1cc(I)c(Oc2cc(I)c(O)c(I)c2)c(I)c1)C(=O)O)c1ccc2c(c1)C(=O)OC21c2ccc(O)cc2Oc2cc(O)ccc21` [T4–5-CF], in assay [1], the dissociation constant (Kd) is less than 0.1 nM. For the molecule `O=C(N[C@@H](Cc1cc(I)c(Oc2cc(I)c(O)c(I)c2)c(I)c1)C(=O)O)c1ccc2c(c1)C1(OC2=O)c2ccc(O)cc2Oc2cc(O)ccc21` [T4–6-CF], the results for the equilibrium dissociation constant (Kd) in assay [2] and in assay [3] were 24.9 ± 1.8 nM and 50.7 ± 3.6 nM, respectively.
